The values that follow come from ChEMBL document CHEMBL1201862, “PubChem BioAssay data set” (2004).

Among the test systems are SK-MEL-5; HL-60; UACC-257; EKVX; UO-31; RXF 393; OVCAR-5; NCI-H460; SN12C; SK-OV-3; COLO 205; CAKI-1; OVCAR-8; MDA-MB-435; HCT-15; NCI-H226; ACHN; MOLT-4; MDA-N; HOP-92.
What all share (assay): DTP human tumour cell line panel, 48 h

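Interpolation was linear, between the two tested concentrations surrounding the appropriate level; five concentrations were tested over 48 hours in 96-well plates. GI50 = concentration required for 50% inhibition of growth.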 Activity calls are given as the source filed them. Cut-off read from the data, not from the text of the source: active = GI50 up to about 1.1 µM and inactive = higher.

One may read the GI50 as the concentration giving 50% growth inhibition. As to `Nc1ccc(S(=O)(=O)C23CC4CC(CC(C4)C2)C3)cc1`, the GI50 with SK-MEL-5 was 4.49 µM (inactive); with HL-60, 27.2 µM (inactive); in the test with UACC-257 it was > 100 µM (inactive); with EKVX, > 100 µM (inactive); with UO-31, > 100 µM (inactive); in the test with RXF 393, 30.1 µM (inactive). Also, the GI50 with OVCAR-5 was > 100 µM (inactive); with NCI-H460, 74.3 µM (inactive); in the test with SN12C, > 100 µM (inactive); in the test on SK-OV-3, > 100 µM (inactive); in the test with COLO 205, 74.1 µM (inactive); in the test with CAKI-1 it was > 100 µM (inactive). Also, the GI50 in the test on OVCAR-8 was > 100 µM (inactive); in the test with MDA-MB-435, 72.9 µM (inactive); in the test on HCT-15, over 100 µM; in the test on NCI-H226 it was > 100 µM (inactive); in the test with ACHN, > 100 µM (inactive).
For the compound `CC(C)(C)OC(=O)NCCc1ccc(N)cc1`, the GI50 with SK-MEL-5 was 33 µM (inactive); in the test on HL-60 it was 17.5 µM (inactive); in the test with UACC-257, 72.8 µM (inactive); in the test with EKVX, > 100 µM (inactive); in the test on UO-31, 4.2 µM (inactive); in the test on MOLT-4, 37.2 µM (inactive). In addition, the GI50 in the test on NCI-H460 was > 100 µM (inactive); in the test with MDA-N, > 100 µM (inactive); in the test on COLO 205, > 100 µM (inactive); in the test on OVCAR-8, > 100 µM (inactive); in the test on MDA-MB-435, > 100 µM (inactive); in the test with HCT-15, over 100 µM. Moreover, the GI50 with ACHN was > 100 µM (inactive).
As for `COc1ccccc1Nc1nc(NNC(=O)Cc2ccccc2)nc(NNC(=O)c2ccncc2)n1`, the GI50 in the test on SK-MEL-5, in the test with HL-60, in the test on UACC-257, with EKVX, in the test on HOP-92 and in the test with MOLT-4 was > 10 µM (inactive) in each case. Further, the GI50 with NCI-H460, with SN12C, in the test with MDA-N, with SK-OV-3, with COLO 205 and in the test on CAKI-1 was > 10 µM (inactive) throughout. Also, the values for the GI50 with OVCAR-8 and in the test with HCT-15 were > 10 µM (inactive) and over 10 µM, respectively.
`COc1ccc(-c2cc(=O)c3c(O)c(OC)c(OC)c(OC)c3o2)cc1OC` [5-DEMETHYLNOBILETIN]: the GI50 in the test with SK-MEL-5 was 27.4 µM (inactive); with HL-60, > 100 µM (inactive); in the test with UACC-257, > 100 µM (inactive); in the test on EKVX, > 100 µM (inactive); in the test with HOP-92, 3.73 µM (inactive); in the test on UO-31, > 100 µM (inactive). The GI50 with MOLT-4 is > 100 µM (inactive); in the test with OVCAR-5, > 100 µM (inactive); with SN12C, > 100 µM (inactive); in the test with MDA-N it was > 100 µM (inactive); in the test on SK-OV-3, 20.4 µM (inactive); with COLO 205, > 100 µM (inactive). For the same compound, the GI50 in the test on CAKI-1 was > 100 µM (inactive); in the test with OVCAR-8, > 100 µM (inactive); with HCT-15 it was over 100 µM; in the test with NCI-H226 it was > 100 µM (inactive); in the test with ACHN, > 100 µM (inactive).
With `COC(=O)C(C(=O)C(=O)Nc1c(C)cccc1C(C)(C)C)c1nc2ccc(Cl)cc2nc1O` (stereo not given), the GI50 with SK-MEL-5 is > 100 µM (inactive); with UACC-257, > 100 µM (inactive); in the test on EKVX, 49.8 µM (inactive); in the test on HOP-92, > 100 µM (inactive); in the test with UO-31, > 100 µM (inactive); in the test with RXF 393, > 100 µM (inactive). Also, the GI50 in the test on MOLT-4, in the test on OVCAR-5, with NCI-H460, with SN12C, in the test on SK-OV-3 and in the test with CAKI-1 was > 100 µM (inactive) throughout. Further, the GI50 in the test on OVCAR-8 is > 100 µM (inactive); in the test with MDA-MB-435 it was > 100 µM (inactive); in the test with HCT-15, over 100 µM; in the test on NCI-H226, > 100 µM (inactive); with ACHN, > 100 µM (inactive).
Regarding `Cc1cc(S(=O)(=O)Nc2nc(N)nc(N(C)C)n2)c(SCC(=O)O)cc1Cl`, the GI50 in the test on SK-MEL-5, with HL-60, in the test on UACC-257, with EKVX, in the test with HOP-92 and with UO-31 was > 10 µM (inactive) each time. For the same compound, the GI50 in the test on RXF 393, in the test with MOLT-4, in the test on OVCAR-5, in the test with NCI-H460, with SN12C and in the test with MDA-N was > 10 µM (inactive) each time. Also, the GI50 with SK-OV-3 is > 10 µM (inactive); in the test on COLO 205, > 10 µM (inactive); with CAKI-1, > 10 µM (inactive); in the test on OVCAR-8, > 10 µM (inactive); in the test with HCT-15, over 10 µM; in the test with NCI-H226 it was > 10 µM (inactive). For the same compound, the GI50 with ACHN was > 10 µM (inactive).
Consider `O=C(CNC(=O)c1ccccc1)Oc1c(Cl)c(Cl)c(Cl)c(Cl)c1Cl`, for which the GI50 with HL-60 was 24.6 µM (inactive); with UACC-257, 19.6 µM (inactive); in the test on EKVX, 21.5 µM (inactive); in the test with UO-31 it was 22 µM (inactive); with RXF 393, 39.4 µM (inactive); with MOLT-4 it was 29 µM (inactive). Moreover, the GI50 in the test on OVCAR-5 was 47.2 µM (inactive); in the test with NCI-H460, 38.5 µM (inactive); in the test on SN12C, 32.1 µM (inactive); in the test with SK-OV-3, 72.4 µM (inactive); with COLO 205 it was 35 µM (inactive); with CAKI-1, 25.8 µM (inactive). Moreover, the GI50 in the test with OVCAR-8 was 22.1 µM (inactive); with MDA-MB-435, 36.1 µM (inactive); in the test on HCT-15, 30.6 µM; in the test on NCI-H226, 29 µM (inactive); in the test with ACHN, 25.2 µM (inactive).
For the compound `CC1=C/C(O)CC(=O)Cc2nc(co2)C(=O)N2CCC=C2C(=O)OC(C(C)C)C(C)/C=C\C(=O)NC/C=C\1` (stereo not given), the GI50 with SK-MEL-5 was 33.4 µM (inactive); with HL-60, 20.3 µM (inactive); in the test with UACC-257 it was 35.3 µM (inactive); in the test with EKVX, 18.8 µM (inactive); with MOLT-4, 16.6 µM (inactive); in the test with OVCAR-5, 18.8 µM (inactive). Also, the GI50 with NCI-H460 was 54 µM (inactive); in the test with SN12C, 14.9 µM (inactive); in the test with MDA-N, 14.2 µM (inactive); with SK-OV-3, 53.1 µM (inactive); in the test with COLO 205, 16.3 µM (inactive); in the test on CAKI-1 it was 22 µM (inactive). The GI50 in the test with OVCAR-8 was 15.3 µM (inactive); in the test with MDA-MB-435 it was 24.8 µM (inactive); in the test with HCT-15 it was 19.8 µM; with NCI-H226, 17.7 µM (inactive); in the test with ACHN it was 12.5 µM (inactive).
As to `CO/N=C(\C(=O)O/C(=N/C1CCCCC1)NC1CCCCC1)c1csc(NC(c2ccccc2)(c2ccccc2)c2ccccc2)n1`, the GI50 with SK-MEL-5, in the test on HL-60, with UACC-257, in the test on EKVX, in the test on HOP-92 and in the test on UO-31 was > 10 µM (inactive) in each case. In addition, the GI50 in the test with RXF 393 is 5.05 µM (inactive); in the test on MOLT-4 it was > 10 µM (inactive); in the test with OVCAR-5, > 10 µM (inactive); in the test on NCI-H460, > 10 µM (inactive); in the test on SN12C, > 10 µM (inactive); in the test on MDA-N, > 10 µM (inactive). The GI50 was > 10 µM (inactive) with SK-OV-3; > 10 µM (inactive) in the test with COLO 205; > 10 µM (inactive) with CAKI-1; > 10 µM (inactive) in the test with OVCAR-8; over 10 µM in the test on HCT-15; > 10 µM (inactive) in the test with NCI-H226. In the test with ACHN, the GI50 is > 10 µM (inactive).
